We go through 29 compounds from patent publication US6544985B2, “Dihydro-benzo [b][1,4]diazepin-2-one derivatives” (Hoffman-La Roche Inc., priority 2001, dated 2003).

For orientation: melting point means the temperature of the solid-liquid transition. `COCCN(C)Cc1cnnn1-c1cccc(C2=Nc3cc(N(C)C(C)C)c(Cl)cc3NC(=O)C2)c1` [Example 146, 8-Chloro-7-(isopropyl-methyl-amino)-4-[3-(5-{[(2-methoxy-ethyl)-methyl-amino]-methyl}-[1,2,3]triazol-1-yl)-phenyl]-1,3-dihydro-benzo[b][1,4]diazepin-2-one] registered a melting point of 119 °C.

As for `CC(C)N(C)Cc1cnnn1-c1cccc(C2=Nc3cc(N(C)C(C)C)c(Cl)cc3NC(=O)C2)c1` [Example 148, 8-Chloro-7-(isopropyl-methyl-amino)-4-(3-{5-[(isopropyl-methyl-amino)-methyl]-[1,2,3]triazol-1-yl}-phenyl)-1,3-dihydro-benzo[b][1,4]diazepin-2-one], the melting point came out at 180 °C.

With `CC(C)CN(C)Cc1cnnn1-c1cccc(C2=Nc3cc(N(C)C(C)C)c(Cl)cc3NC(=O)C2)c1` [Example 149, 8-Chloro-4-(3-{5-[(isobutyl-methyl-amino)-methyl]-[1,2,3]triazol-1-yl}-phenyl)-7-(isopropyl-methyl-amino)-1,3-dihydro-benzo[b][1,4]diazepin-2-one], the melting point is 182 °C.

`CC(C)N(C)c1cc2c(cc1C(F)(F)F)NC(=O)CC(c1cccc(-n3nncc3CN(C)C)c1)=N2` [Example 150, 4-[3-(5-Dimethylaminomethyl-[1,2,3]triazol-1-yl)-phenyl]-7-(isopropyl-methyl-amino)-8-trifluoromethyl-1,3-dihydro-benzo[b][1,4]diazepin-2-one] registered a melting point of 197 °C.

`CC(C)N(C)c1cc2c(cc1C(F)(F)F)NC(=O)CC(c1cccc(-n3nncc3CN3CCCC3)c1)=N2` [Example 151, 7-(Isopropyl-methyl-amino)-4-[3-(5-pyrrolidin-1-ylmethyl-[1,2,3]triazol-1-yl)-phenyl]-8-trifluoromethyl-1,3-dihydro-benzo[b][1,4]diazepin-2-one] returned a melting point of 175 °C.

The compound `CC(C)N(C)c1cc2c(cc1C(F)(F)F)NC(=O)CC(c1cccc(-n3nncc3CNCC3CC3)c1)=N2` [Example 153, 4-(3-{5-[(Cyclopropylmethyl-amino)-methyl]-[1,2,3]triazol-1-yl}-phenyl)-7-(isopropyl-methyl-amino)-8-trifluoromethyl-1,3-dihydro-benzo[b][1,4]diazepin-2-one] yielded a melting point of 152 °C.

In turn, `CC(C)N(C)c1cc2c(cc1Cl)NC(=O)CC(c1cccc(-n3nncc3CNC3CC3)c1)=N2` [Example 154, 8-Chloro-4-[3-(5-cyclopropylaminomethyl-[1,2,3]triazol-1-yl)-phenyl]-7-(isopropyl-methyl-amino)-1,3-dihydro-benzo[b][1,4]diazepin-2-one] had a melting point of 144 °C.

On to `CC(C)NCc1cnnn1-c1cccc(C2=Nc3cc(N(C)C(C)C)c(C(F)(F)F)cc3NC(=O)C2)c1` [Example 155, 4-{3-[5-(Isopropylamino-methyl)-[1,2,3]triazol-1-yl]-phenyl}-7-(isopropyl-methyl-amino)-8-trifluoromethyl-1,3-dihydro-benzo[b][1,4]diazepin-2-one], for which the melting point came to 191 °C.

Compound `CC(C)CNCc1cnnn1-c1cccc(C2=Nc3cc(N(C)C(C)C)c(Cl)cc3NC(=O)C2)c1` [Example 156, 8-Chloro-4-{3-[5-(isobutylamino-methyl)-[1,2,3]triazol-1-yl]-phenyl}-7-(isopropyl-methyl-amino)-1,3-dihydro-benzo[b][1,4]-diazepin-2-one] yielded a melting point of 182 °C.

Compound `CC(C)N(C)c1cc2c(cc1C(F)(F)F)NC(=O)CC(c1cccc(-n3nncc3CNC3CC3)c1)=N2` [Example 157, 4-[3-(5-Cyclopropylaminomethyl-[1,2,3]triazol-1-yl)-phenyl]-7-(isopropyl-methyl-amino)-8-trifluoromethyl-1,3-dihydro-benzo[b][1,4]diazepin-2-one] came in with a melting point of 178 °C.

The compound `Cc1cc2c(cc1N(C)CC(C)C)N=C(c1cccc(-n3ncnc3CN3CCCC3)c1)CC(=O)N2` [Example 158, 7-(Isobutyl-methyl-amino)-8-methyl-4-[3-(5-pyrrolidin-1-ylmethyl-[1,2,4]triazol-1-yl)-phenyl]-1,3-dihydro-benzo[b][1,4]diazepin-2-one] showed a melting point of 164 °C.

Regarding `Cc1cc2c(cc1N(C)CC(C)C)N=C(c1cccc(-n3ncnc3CNC3CC3)c1)CC(=O)N2` [Example 159, 4-[3-(5-Cyclopropylaminomethyl-[1,2,4]triazol-1-yl)-phenyl]-7-(isobutyl-methyl-amino)-8-methyl-1,3-dihydro-benzo[b][1,4]diazepin-2-one], the melting point was determined as 114 °C.

`Cc1cc(-c2cccc(C3=Nc4cc(NC(C)C)c(Cl)cc4NC(=O)C3)c2)on1` [Example 160, 8-Chloro-7-isopropylamino-4-[3-(3-methyl-isoxazol-5-yl)-phenyl]-1,3-dihydro-benzo[b][1,4]diazepin-2-one] displayed a melting point of 225 °C.

The compound `CC(C)Nc1cc2c(cc1Cl)NC(=O)CC(c1cccc(-n3nncc3CO)c1)=N2` [Example 161, 8-Chloro-4-[3-(5-hydroxymethyl-[1,2,3]triazol-1-yl)-phenyl]-7-isopropylamino-1,3-dihydro-benzo[b][1,4]diazepin-2-one] had a melting point of 250 °C.

Compound `CCCN(C)c1cc2c(cc1Cl)NC(=O)CC(c1cccc(-n3ncnc3CO)c1)=N2` [Example 162, 8-Chloro-7-(methyl-propyl-amino)-4-[3-(5-hydroxymethyl-[1,2,4]triazol-1-yl)-phenyl]-1,3-dihydro-benzo[b][1,4]diazepin-2-one] gave a melting point of 192 °C.

With `CCCN(C)c1cc2c(cc1Cl)NC(=O)CC(c1cccc(-n3ncnc3CN3CCCC3)c1)=N2` [Example 164, 8-Chloro-7-(methyl-propyl-amino)-4-[3-(5-pyrrolidin-1-ylmethyl-[1,2,4]triazol-1-yl)-phenyl]-1,3-dihydro-benzo[b][1,4]diazepin-2-one], the melting point is 183 °C.

With `CC(C)CN(C)c1cc2c(cc1Cl)NC(=O)CC(c1cccc(-n3ncnc3CN3CCCC3)c1)=N2` [Example 165, 8-Chloro-7-(isobutyl-methyl-amino)-4-[3-(5-pyrrolidin-1-ylmethyl-[1,2,4]triazol-1-yl)-phenyl]-1,3-dihydro-benzo[b][1,4]diazepin-2-one], the melting point is 164 °C.

The compound `CCCN(C)c1cc2c(cc1Cl)NC(=O)CC(c1cccc(-n3ncnc3CN(C)C)c1)=N2` [Example 166, 8-Chloro-4-[3-(5-dimethylaminomethyl-[1,2,4]triazol-1-yl)-phenyl]-7-(methyl-propyl-amino)-1,3-dihydro-benzo[b][1,4]diazepin-2-one] registered a melting point of 170 °C.

`CCCN(C)c1cc2c(cc1Cl)NC(=O)CC(c1cccc(-n3ncnc3CNC3CC3)c1)=N2` [Example 167, 8-Chloro-4-[3-(5-cyclopropylaminomethyl-[1,2,4]triazol-1-yl)-phenyl]-7-(methyl-propyl-amino)-1,3-dihydro-benzo[b][1,4]diazepin-2-one]: the melting point was 123 °C.

In turn, `Cc1cc2c(cc1N(C)CC(C)C)N=C(c1cccc(-n3ncnc3CO)c1)CC(=O)N2` [Example 168, 4-[3-(5-Hydroxymethyl-[1,2,4]triazol-1-yl)-phenyl]-7-(isobutyl-methyl-amino)-8-methyl-1,3-dihydro-benzo[b][1,4]diazepin-2-one] gave a melting point of 191 °C.

Compound `CCCN(C)c1cc2c(cc1C(F)(F)F)NC(=O)CC(c1cccc(-n3ccnn3)c1)=N2` [Example 170, 7-(Methyl-propyl-amino)-4-(3-[1,2,3]triazol-1-yl-phenyl)-8-trifluoromethyl-1,3-dihydro-benzo[b][1,4]diazepin-2-one] gave a melting point of 147 °C.

`CC(C)CN(C)c1cc2c(cc1C(F)(F)F)NC(=O)CC(c1cccc(-n3cccn3)c1)=N2` [Example 171, 7-(Isobutyl-methyl-amino)-4-(3-pyrazol-1-yl-phenyl)-8-trifluoromethyl-1,3-dihydro-benzo[b][1,4]diazepin-2-one] displayed a melting point of 182 °C.

`CC(C)N(C)c1cc2c(cc1C(F)(F)F)NC(=O)CC(c1ccnc(C#N)c1)=N2` [Example 172, 4-[8-(Isopropyl-methyl-amino)-4-oxo-7-trifluoromethyl-4,5-dihydro-3H-benzo[b][1,4]diazepin-2-yl]-pyridine-2-carbonitrile] gave a melting point of 189 °C.

Compound `CC(C)CN(C)c1cc2c(cc1Cl)NC(=O)CC(c1cccc(-n3cncn3)c1)=N2` [Example 173, 8-Chloro-7-(isobutyl-methyl-amino)-4-(3-[1,2,4]triazol-1-yl-phenyl)-1,3-dihydro-benzo[b][1,4]diazepin-2-one] came in with a melting point of 213 °C.

Compound `CC(C)CN(C)c1cc2c(cc1Cl)NC(=O)CC(c1cccc(-n3ccnn3)c1)=N2` [Example 175, 8-Chloro-7-(isobutyl-methyl-amino)-4-(3-[1,2,3]triazol-1-yl-phenyl)-1,3-dihydro-benzo[b][1,4]diazepin-2-one] yielded a melting point of 85 °C.

On to `CC(C)CN(C)c1cc2c(cc1C(F)(F)F)NC(=O)CC(c1cccc(-n3ccnn3)c1)=N2` [Example 176, 7-(Isobutyl-methyl-amino)-4-(3-[1,2,3]triazol-1-yl-phenyl)-8-trifluoromethyl-1,3-dihydro-benzo[b][1,4]diazepin-2-one], for which the melting point is 202 °C.

`CC(C)CNc1cc2c(cc1C(F)(F)F)NC(=O)CC(c1cccc(-n3ccnc3)c1)=N2` [Example 177, 4-(3-Imidazol-1-yl-phenyl)-7-isobutylamino-8-trifluoromethyl-1,3-dihydro-benzo[b][1,4]diazepin-2-one] had a melting point of 221 °C.

In turn, `CC(C)CNc1cc2c(cc1Cl)NC(=O)CC(c1cccc(-n3ccnc3)c1)=N2` [Example 178, 8-Chloro-4-(3-imidazol-1-yl-phenyl)-7-isobutylamino-1,3-dihydro-benzo[b][1,4]diazepin-2-one] displayed a melting point of 212 °C.

In turn, `CC(C)CNc1cc2c(cc1Cl)NC(=O)CC(c1cccc(-n3ccnn3)c1)=N2` [Example 179, 8-Chloro-7-(isobutyl-amino)-4-(3-[1,2,3]triazol-1-yl-phenyl)-1,3-dihydro-benzo[b][1,4]diazepin-2-one] had a melting point of 249 °C.
